Reference: patent publication US20120190687A1, “Pyrazinylpyrazoles” (Bayer CropScience Ag, priority 2009, published 2012)

Columns and labels:
[1] = logP by reversed-phase HPLC (EEC Directive 79/831 Annex V.A8); assay type: physicochemical; settings: * LC-MS, acidic range, pH 2.7, 0.1% aqueous formic acid / acetonitrile
Description: [table] The calibration is effected with unbranched alkan-2-ones (having 3 to 16 carbon atoms) with known log P values (log P values determined on the basis of the retention times by linear interpolation between two successive alkanones).

[2] = test system: Boophilus microplus females of the SP-resistant Parkhurst strain; assay: Boophilus microplus (dip); assay type: in vivo; settings: 100 ppm, after 7 days, laying of fertile eggs
Description: Boophilus microplus (dip)
Test animals: adult engorged Boophilus microplus females of the SP-resistant Parkhurst strain
Solvent: Dimethyl Sulphoxide
10 mg of active ingredient are dissolved in 0.5 ml of dimethyl sulphoxide. For the purpose of preparing a suitable formulation, the active ingredient solution is diluted with water to the concentration desired in each case. This active ingredient preparation is pipetted into tubes. 8-10 ticks are transferred into a further tube with holes. The tube is immersed into the active ingredient formulation, and all ticks are completely wetted. After the liquid has run out, the ticks are transferred onto filter discs in plastic dishes and stored in a climate-controlled room. The activity is assessed after 7 days by laying of fertile eggs. Eggs whose fertility is not outwardly visible are stored in glass tubes in a climate-controlled cabinet until the larvae hatch. Efficacy of 100% means that none of the ticks has laid any fertile eggs.

Boophilus microplus = Boophilus microplus test (BOOPMI injection); assay type: in vivo; settings: 20 μg/animal, injection into abdomen, after 7 days, laying of fertile eggs
Description: Boophilus microplus Test (BOOPMI Injection) Solvent: Dimethyl Sulphoxide To prepare an appropriate active ingredient formulation, 10 mg of active ingredient are mixed with 0.5 ml of solvent and the concentrate is diluted with solvent to the desired concentration. The active ingredient solution is injected into the abdomen (Boophilus microplus), and the animals are transferred into dishes and stored in a climate-controlled room. The efficacy is assessed by laying of fertile eggs. After 7 days, the efficacy in % is determined. 100% means that none of the ticks has laid any fertile eggs.

Lucilia cuprina larvae = assay: Lucilia cuprina test (LUCICU); assay type: in vivo; settings: 100 ppm, treated horse meat, after 2 days
Description: (§1) Lucilia cuprina Test (LUCICU) Solvent: Dimethyl Sulphoxide To prepare an appropriate active ingredient formulation, 10 mg of active ingredient are mixed with 0.5 ml of dimethyl sulphoxide and the concentrate is diluted with water to the desired concentration. Vessels containing horse meat treated with the active ingredient preparation of the desired concentration are populated with about 20 Lucilia cuprina larvae. After 2 days, the kill in % is determined. 100% means that all of the larvae have been killed; 0% means that none of the larvae have been killed.

Myzus persicae = assay: Myzus test (MYZUPE spray treatment); assay type: in vivo; settings: 500 g/ha, Chinese cabbage discs, after 6 days
Description: Myzus test (MYZUPE Spray Treatment) Solvent: 78 parts by weight of acetone • • 1.5 parts by weight of dimethylformamide Emulsifier: 0.5 part by weight of alkylaryl polyglycol ether To prepare an appropriate active ingredient preparation, 1 part by weight of active ingredient is mixed with the stated amounts of solvent and emulsifier, and the concentrate is diluted with emulsifier-containing water to the desired concentration. Discs of Chinese cabbage (Brassica pekinensis) infested by all stages of the green peach aphid (Myzus persicae) are sprayed with an active ingredient preparation of the desired concentration. After 6 days, the efficacy in % is determined. 100% means that all of the aphids have been destroyed; 0% means that none of the aphids have been destroyed.

Ctenocephalides felis = Ctenocephalides felis test (CTECFE); assay type: in vivo; settings: 100 ppm in citrated cow's blood, after 2 days
Description: Ctenocephalides felis Test ([…]) Solvent: 1 Part by Weight of Dimethyl Sulphoxide For the purpose of preparing an appropriate active ingredient formulation, 10 mg of active ingredient are mixed with 0.5 ml of dimethyl sulphoxide. A portion of the concentrate is diluted with citrated cow's blood and the desired concentration is established. About 20 unfed adult fleas (Ctenocephalides felis) are introduced into a chamber closed at the top and bottom with gauze. A metal cylinder, the bottom of which is closed with Parafilm, is placed onto the chamber. The cylinder contains the blood/active ingredient preparation, which can be imbibed by the fleas through the Parafilm membrane. After 2 days, the kill in % is determined. 100% means that all fleas have been killed; 0% means that none of the fleas have been killed.

Musca domestica = Musca domestica test; assay type: in vivo; settings: after 2 days
Description: as §1, with “Musca domestica” for “Lucilia cuprina”, “Test” for “Test (LUCICU)”, “a sponge” for “horse meat”, “adult Musca domestica.” for “about 20 Lucilia cuprina larvae.”, “flies” for “larvae”

Phaedon cochleariae = assay: Phaedon test (PHAECO spray treatment); assay type: in vivo; settings: 500 g/ha, Chinese cabbage discs, after 7 days
Description: Phaedon Test ([…] Spray Treatment) Solvent: 78.0 parts by weight of acetone • • 1.5 parts by weight of dimethylformamide Emulsifier: 0.5 part by weight of alkylaryl polyglycol ether To prepare an appropriate active ingredient preparation, 1 part by weight of active ingredient is mixed with the stated amounts of solvent and emulsifier, and the concentrate is diluted with emulsifier-containing water to the desired concentration. Discs of Chinese cabbage (Brassica pekinensis) are sprayed with an active ingredient preparation of the desired concentration and, after drying, populated with larvae of the mustard beetle (Phaedon cochleariae). After 7 days, the efficacy in % is determined. 100% means that all beetle larvae have been killed; 0% means that none of the beetle larvae have been killed.

Spodoptera frugiperda = Spodoptera frugiperda test (SPODFR spray treatment); assay type: in vivo; settings: 500 g/ha, maize leaf discs, after 7 days
Description: Spodoptera frugiperda Test (SPODFR Spray Treatment) Solvent: 78.0 parts by weight of acetone • • 1.5 parts by weight of dimethylformamide Emulsifier: 0.5 part by weight of alkylaryl polyglycol ether To prepare an appropriate active ingredient preparation, 1 part by weight of active ingredient is mixed with the stated amounts of solvent and emulsifier, and the concentrate is diluted with emulsifier-containing water to the desired concentration. Discs of maize leaves (Zea mays) are sprayed with an active ingredient preparation of the desired concentration and, after drying, populated with caterpillars of the armyworm (Spodoptera frugiperda). After 7 days, the efficacy in % is determined. 100% means that all caterpillars have been killed; 0% means that none of the caterpillars have been killed.

Tetranychus urticae = assay: Tetranychus test, OP-resistant (TETRUR spray treatment); assay type: in vivo; settings: bean leaf discs, after 6 days
Description: Tetranychus Test, OP-resistant (TETRUR Spray Treatment)
Solvent: 78.0 parts by weight of acetone • • 1.5 parts by weight of dimethylformamide
Emulsifier: 0.5 part by weight of alkylaryl polyglycol ether
To prepare an appropriate active ingredient preparation, 1 part by weight of active ingredient is mixed with the stated amounts of solvent and emulsifier, and the concentrate is diluted with emulsifier-containing water to the desired concentration. Discs of bean leaves (Phaseolus vulgaris) infested by all stages of the red spider mite (Tetranychus urticae) are sprayed with an active ingredient preparation of the desired concentration. After 6 days, the efficacy in % is determined. 100% means that all spider mites have been killed; 0% means that none of the spider mites have been killed.

SMILES	log P [1]	efficacy [2]	efficacy (Boophilus microplus)	efficacy (kill) (Lucilia cuprina larvae)	efficacy (Myzus persicae)	efficacy (kill) (Ctenocephalides felis)	efficacy (kill) (Musca domestica; 100 ppm)	efficacy (Phaedon cochleariae)	efficacy (Spodoptera frugiperda)	efficacy (Tetranychus urticae; 500 g/ha)	efficacy (kill) (Musca domestica; 20 ppm)	efficacy (Tetranychus urticae; 100 g/ha)	chromatographic logP ([1]; reversed-phase HPLC column, read-out: log P)
C=Cc1nn(-c2nccnc2OC)c(N)c1-c1cc(Cl)cc(Cl)c1 [Ex. 8]	3.51*	90%	100%	100%	100%								
COc1nccnc1-n1nc(C(F)(F)Cl)c(-c2cc(Cl)cc(C(F)(F)F)c2)c1N [Ex. 17]	4.24*	100%	100%	100%	100%	100%	100%	100%	100%	100%			
COc1nccnc1-n1nc(C(F)(F)F)c(-c2cc(Cl)c3c(c2)OCCO3)c1N [Ex. 133]	3.02*	95%	100%	100%		100%		100%	100%		80%	90%	
COc1nccnc1-n1nc(C(C)(F)F)c(-c2ccc(Cl)c(C(F)(F)F)c2)c1N [Ex. 20]	3.74*	100%	100%	100%	100%			100%	100%	100%			
COc1cc(-c2c(C(F)(F)F)nn(-c3nccnc3OC)c2N)cc(C(F)(F)F)c1 [compound 26, 1-(3-methoxypyrazin-2-yl)-4-[3-methoxy-5-(trifluoromethyl)phenyl]-3-(trifluoromethyl)-1H-pyrazol-5-amine]		90%	100%	100%		95%		100%	83%	100%			3.63
COc1nccnc1-n1nc(C(F)(F)F)c(-c2cc(Br)c3c(c2)OCCO3)c1N [Ex. 132]	3.09*	100%	100%	100%		100%	80%	100%	100%	80%			
COc1nccnc1-n1nc(C(F)(F)F)c(-c2ccc(Cl)c(C(F)(F)F)c2)c1N [Ex. 18]	3.94*	100%	100%	100%	90%			100%	83%	100%			
COc1nccnc1-n1nc(C(F)(F)C(F)(F)OC)c(-c2cc(Cl)cc(C(F)(F)F)c2)c1N [Ex. 47]	3.98*	100%	100%	100%	80%	100%	80%	100%	100%	100%			
COc1nccnc1-n1nc(C(F)(F)C(F)(F)F)c(-c2cc(Cl)cc(C(F)(F)F)c2)c1N [Ex. 15]	4.58*	100%	100%	100%	100%	95%	95%	100%	100%	100%			
